Values joined by “and” are separate entries in the source; they are usually repeats but may differ in a detail not shown here. Identical values can stand only once. “Also recorded” adds a separate entry of the source. Like-named read-outs stand apart in the source and are kept apart here.
Columns and labels:
[1] = biological target: T1, novel, non-AT1, non-AT2 angiotensin binding site (neurolysin) (Rattus norvegicus, UniProt P42676); test: Inhibition or enhancement of PCMB-unmasked 125I-SI Ang II binding in membranes
T1 sequence (P42676 38-704): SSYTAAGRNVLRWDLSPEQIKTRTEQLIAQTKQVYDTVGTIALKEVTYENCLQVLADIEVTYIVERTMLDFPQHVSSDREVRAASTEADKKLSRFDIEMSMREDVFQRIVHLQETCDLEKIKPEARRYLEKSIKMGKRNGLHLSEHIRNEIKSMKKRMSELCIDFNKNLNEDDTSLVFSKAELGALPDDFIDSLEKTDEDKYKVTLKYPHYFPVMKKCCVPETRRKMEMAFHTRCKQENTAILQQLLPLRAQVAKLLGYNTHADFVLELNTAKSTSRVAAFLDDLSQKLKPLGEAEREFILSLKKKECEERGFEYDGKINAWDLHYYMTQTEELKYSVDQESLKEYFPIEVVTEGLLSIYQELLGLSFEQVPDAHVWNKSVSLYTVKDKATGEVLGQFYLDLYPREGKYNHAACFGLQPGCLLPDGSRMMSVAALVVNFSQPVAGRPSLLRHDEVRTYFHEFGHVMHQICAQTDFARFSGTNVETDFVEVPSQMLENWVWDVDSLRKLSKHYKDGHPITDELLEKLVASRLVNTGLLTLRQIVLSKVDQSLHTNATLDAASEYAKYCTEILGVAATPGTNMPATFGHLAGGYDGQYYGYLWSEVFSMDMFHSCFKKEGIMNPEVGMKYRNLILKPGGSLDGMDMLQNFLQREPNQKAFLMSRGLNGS

[2] = biological target: T1, novel, non-AT1, non-AT2 angiotensin binding site (neurolysin); test: Unmasking of specific 125I-SI Ang II binding in membranes
thimet oligopeptidase = conditions: cited from earlier work
[3] = biological target: T1, novel, non-AT1, non-AT2 angiotensin binding site (neurolysin); conditions: cited from earlier work
Sprague-Dawley rats = test: Drinking test after icv Ang II with or without HgCl2; format: in vivo, rat; conditions: ICV 200 pmoles HgCl2 with 100 pmoles Ang II; water intake over 30 min
liver AT1 receptors = liver AT1 receptors (Rattus norvegicus, UniProt P25095); format: binding; conditions: for Kd of 125I-SI Ang II binding: liver
Sequence of liver AT1 receptors (P25095 whole entry): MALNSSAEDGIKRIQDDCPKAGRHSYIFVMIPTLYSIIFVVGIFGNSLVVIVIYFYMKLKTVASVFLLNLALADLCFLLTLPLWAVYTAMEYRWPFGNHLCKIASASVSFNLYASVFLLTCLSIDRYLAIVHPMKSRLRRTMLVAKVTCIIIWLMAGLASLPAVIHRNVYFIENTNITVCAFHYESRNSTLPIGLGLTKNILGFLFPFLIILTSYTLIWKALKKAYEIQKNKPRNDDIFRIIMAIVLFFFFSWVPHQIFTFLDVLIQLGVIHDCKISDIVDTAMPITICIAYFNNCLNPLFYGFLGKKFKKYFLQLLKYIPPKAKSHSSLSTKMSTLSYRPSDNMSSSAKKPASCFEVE

neurolysin = conditions: cited from earlier work
[4] = 100 μM test compound, 100 μM PCMB, brain and testis
[5] = brain and testis, ~100 μM primary screening or range of concentrations

In the case of `O=[N+]([O-])[O-].[Ag+]` [AgNO3, silver nitrate], the “inhibition of PCMB-unmasked 125I-SI Ang II binding, primary screening (in words)” value (“inhibition … primary screening (in words)” for short) [1] is reported as “significantly reduced; also recorded: substantially inhibited”, the “IC50's for inhibition of 125I-SI Ang II binding” value (“IC50's for inhibition” below) ([1]; brain and testis, 100 μM PCMB) is reported as 1 to 20 µM and the “IC50 for inhibition of 125I-SI Ang II binding” value (“IC50 for inhibition” for short) ([1]; brain, 100 μM PCMB) is reported as 1.77 µM. The “IC50 for inhibition” value ([1]; testis, 100 μM PCMB) was 21.3 µM.

For `NCCCNCCS` [WR-1065], the “inhibition … primary screening (in words)” value [1, 4] was “did not inhibit”.

In the case of `NCCCNCCSP(=O)(O)O` [amifostine], the “inhibition of PCMB unmasking of 125I-SI Ang II binding, primary screening” value (“inhibition of PCMB unmasking … primary screening” for short) [1, 4] is reported as “more than 50%” and the “inhibition in secondary screening” value ([1]; at or above 100 μM, 100 μM PCMB, data not shown) is reported as less than 50%.

For `NCCS` [cysteamine], the “inhibition of PCMB unmasking … primary screening” value [1, 4] was “more than 50%”, the “IC50 for inhibition” value ([1]; brain, 100 μM PCMB) was 28.1 µM and the “IC50 for inhibition” value ([1]; testis, 100 μM PCMB) was 138 µM.

For `O=C(O)c1cc[c]([Hg][Cl])cc1` [PCMB, parachloromercuribenzoic acid], the “concentration for optimal (peak) unmasking of 125I-SI Ang II binding” value (shortened to “concentration for optimal”) ([2]; brain and testis) is listed as 100 to 300 µM and the “unmasking of Ang II binding to thimet oligopeptidase (in words)” value (thimet oligopeptidase) is listed as “does not unmask”.

For `OCCS` [2-mercaptoethanol, 2-mercaptoethanol], the “reversal of PCMB unmasking of Ang II binding (in words)” value [3] is given as “reversed”.

In the case of `COC([CH2][Hg+])CNC(=O)c1ccccc1OCC(=O)O.[OH-]` (stereo not shown) [mersalyl acid], the “inhibition … primary screening (in words)” value [1] is reported as “full inhibition”, the “inhibition of PCMB unmasking … primary screening” value [1, 4] is reported as “more than 50%” and the “IC50's for inhibition” value ([1]; brain and testis, 100 μM PCMB) is reported as 1 to 20 µM. The “IC50 for inhibition” value ([1]; brain, 100 μM PCMB) was 1.10 µM, the “IC50 for inhibition” value ([1]; testis, 100 μM PCMB) was 2.27 µM and the “unmasking of 125I-SI Ang II binding at concentrations up to 1 mM (in words)” value ([2]; brain and testis, absence of PCMB, data not shown) was “no ability to unmask; also recorded: did not unmask”.

With `O=C(O)c1ccc(O)cc1` [4-hydroxybenzoic acid] the “unmasking of specific 125I-SI Ang II binding in the absence of PCMB (in words)” value (“unmasking … of PCMB (in words)” for short) [2, 5] was “did not promote”.

With `OO` [hydrogen peroxide] the “inhibition … primary screening (in words)” value [1] was “did not inhibit”.

With `[Cl][Hg][Cl]` [HgCl2, mercuric chloride] the “inhibition … primary screening (in words)” value [1] was “significantly reduced; also recorded: substantially inhibited”, the “IC50's for inhibition” value ([1]; brain and testis, 100 μM PCMB) was 1 to 20 µM and the “IC50 for inhibition” value ([1]; brain, 100 μM PCMB) was 14.3 µM. For the same compound, the “IC50 for inhibition” value ([1]; testis, 100 μM PCMB) was 11.0 µM, the “effect on dipsogenic response to Ang II (in words)” value (Sprague-Dawley rats) was “lack of effect; also recorded: did not affect” and the “Bmax of 125I-SI Ang II binding” value (liver AT1 receptors) was 20.8±1.8 and 20.6±2.4 and 20.4±4.4. The “effect on 125I-SI Ang II binding to AT1 receptors (in words)” value (liver AT1 receptors) was “lack of effect; also recorded: did not impair”, the “Kd of 125I-SI Ang II binding” value (liver AT1 receptors; 10 μM HgCl2) was 2.93±0.40 and the “Kd of 125I-SI Ang II binding” value (liver AT1 receptors; 30 μM HgCl2) was 2.41±0.46. For the same compound, the “Kd of 125I-SI Ang II binding” value (liver AT1 receptors; 100 μM HgCl2) was 3.15±1.1.

With `Cc1cc(-c2ccc(/N=N/c3ccc4c(S(=O)(=O)O)cc(S(=O)(=O)O)c(N)c4c3O)c(C)c2)ccc1/N=N/c1ccc2c(S(=O)(=O)O)cc(S(=O)(=O)O)c(N)c2c1O` [Evans blue] the “effect on 125I-SI Ang II binding in the presence of PCMB (in words)” value ([1]; 100 μM, brain and testis) was “enhanced”, the “Rmax for enhancement of specific 125I-SI Ang II binding in the presence of PCMB” value ([1]; brain, 100 μM PCMB) was 163±56% and the “Rmax for enhancement of specific 125I-SI Ang II binding in the presence of PCMB” value ([1]; testis, 100 μM PCMB) was 442±340%. The “unmasking … of PCMB (in words)” value [2, 5] was “unable to unmask”.

With `O=C(O)c1cc[c]([Hg][OH])cc1` [4-hydroxymercuribenzoate, 4-hydroxymercuribenzoic acid] the “inhibition … primary screening (in words)” value [1] was “moderately inhibited”, the “unmasking … of PCMB (in words)” value [2] was “unmasked non-AT1, non-AT2 binding independent of PCMB; also recorded: partial unmasking; also recorded: capable of fully unmasking” and the “concentration for optimal” value ([2]; brain and testis) was ~ 300 μM. For the same compound, the “concentration for optimal” value ([2]; brain and testis, listed as 4-OH Hg bza) was 300 µM.

For `O=[N+]([O-])[O-].[Na+]` [Sodium nitrate], the “inhibition … primary screening (in words)” value [1] was “did not show any inhibition”.

For `O[C@@H](CS)[C@@H](O)CS` [DTT], the “inhibition of the enzymatic activity of neurolysin (in words)” value (neurolysin) is given as “can be inhibited” and the “reversal of PCMB unmasking of Ang II binding (in words)” value [3] is given as “reversed”.

In the case of `[Cl][Mn][Cl]` [manganese chloride], the “unmasking … of PCMB (in words)” value [2] is reported as “greater unmasking in testis compared to brain”.
